# Read-outs that look alike come from different tables or passages of the source.
# Legend:
# [1] = tested on: Wistar rat model of diet-induced obesity; experiment: Body fat (DEXA) and white adipose tissue weight in Wistar rat model of diet-induced obesity; assay type: in vivo, Wistar rats; details: 28 days
# Source text: A total of 60 animals were used in the study. The animals were distributed into 6 groups; 1 group was fed standard chow, 1 group was fed a high fat, high sucrose (HFHS) diet with 28 days treatment, 1 untreated control group was fed a HFHS diet, and 1 untreated group was fed a HFHS diet, but with caloric intake restricted to match the caloric intake of the 4-OH treated animals (pair-fed animals). A fifth group was fed a high fat, high sucrose (HFHS) diet with 28 days treatment and received an acute oral administration of 4-OH prior to experimentation on Day 29 of the study, and a sixth group was fed a HFHS diet, but with caloric intake restricted to match the caloric intake of the 4-OH treated animals receiving an acute oral administration of 4-OH on Day 29 of the study (pair-fed animals). Each group was composed of 10 animals. […] Immediately prior to commencement of treatment the animals were evaluated by DEXA scanning (Dual Energy X-ray Absortiometry) to determine the baseline percentage of body weight related to fat. For the four weeks of treatment, the test article (4-OH) was dissolved in reverse osmosis water. 4-OH was aliquoted and kept at 4° C. […] Untreated animals received water twice daily.
# FatB1 = experiment: RT-PCR gene expression in adipocytes of treated rats: FatB1; assay type: in vivo; details: data not shown
# Procedure: (§1) As the ex vivo studies on adipocytes indicated the lipolytic effect of drug was due to chronic exposure (see previous example), a role in gene regulation was assessed. RT-PCR was used to assess the expression of genes in the adipocytes from treated and control animals.
# [2] = tested on: Diet Induced Obesity (DIO)-Mice; assay type: in vivo
# Procedure: A total of 40 animals were used in the study. The animals were distributed into 5 groups (4 treated, 1 control group, all on high fat diet). Each group was composed of 8 animals.
# 4-OH was aliquoted and kept at 4° C. […] Mice from groups 4 and 5 were treated twice daily with 50 and 100 mg/kg of compound 65a. All groups were treated by oral gavage. Treatment commenced on Day 0 and ended on Day 7 (FIG. 37A). Body weights were measured daily.
# obese mice = experiment: Compound 22 and 4-hydroxyisoleucine on weight gain of obese mice, 21 days; assay type: in vivo, C57BL/6 mice; details: p<0.01
# Procedure: The objective of the following study was to evaluate the effect of the lactone form of 4-hydroxyisoleucine (compound 22) on the weight gain of obese mice. 40 C57BL/6 mice were fed a high fat diet (60% of calories from fat) for 6 weeks in order to induce obesity. Animals were than randomized to 5 study groups of 8 mice each according to their body weight values. Thereafter, the animals were treated orally twice daily with either the water vehicle, 50 mg/kg of compound 22, 100 mg/kg of compound 22, 50 mg/kg of 4-hydroxyisoleucine or 100 mg/kg of 4-hydroxyisoleucine. The treatment lasted 21 days and body weight of mice were determined daily from day 1 to day 21 of the study.
# DIO-mice = assay type: in vivo
# Source text: The objective of this study was to evaluate the effect of chronic administration of 4-hydroxyisoleucine (4-OH, compound 14a) on food consumption and body weight gain of DIO-mice. Both parameters were monitored for 1 week prior to the commencement of treatment, then for the 77 days of treatment and for an additional 12 days post-treatment.
# C57BL/6 mice were received at 7-8 weeks of age and fed a high fat diet (60% of calories from fat) for several weeks. A total of 32 animals were used in the study. The animals were distributed into 4 groups (3 treated, 1 control group, all on high fat diet). Each group was composed of 8 animals. The mice were randomized according to body weight and basal glycemia values following a 5±0.5 hour fasting period.
# The test agent was dissolved in reverse osmosis water. 4-Hydroxyisoleucine was aliquoted and kept at 4° C. Control animals received reverse osmosis water twice daily (group 1). Mice from groups 2, 3 and 4 were treated twice daily with 4-hydroxyisoleucine (4-OH, compound 14a) at 100, 50, and 25 mg/kg, respectively. All groups were treated by oral gavage. Treatment commenced on Day 0 and ended on Day 77. Food consumption was measured daily and averaged on a weekly basis beginning one week before the start of treatment as shown in FIG. 16B. Similarly, food consumption was monitored during the treatment period and for 12 days after treatment was stopped as shown in FIGS. 16A and 16B.
# FABP4/ap2 = experiment: RT-PCR gene expression in adipocytes of treated rats: FABP4/ap2; assay type: in vivo
# Procedure: as §1
# HSL = experiment: RT-PCR gene expression in adipocytes of treated rats: HSL; assay type: in vivo
# Procedure: as §1
# AMPK-ACC = experiment: Phosphorylation level of AMPK-ACC in the hypothalamus of HFHS fed rats (Western blot, anti-pACC); assay type: in vivo; details: 100 mg/kg BID for 2 days, overnight fasted, dosed one hour before terminal procedure, vs control
# Source text: The AMPK pathway is known to regulate food intake in the hypothalamus. In low energy state as in a food deprivation situation, AMPK phosphorylates and in this way inactivates acetyl CoA carboxylase (ACC). Phosphorylation of ACC thus reduces its ability to catalyse the production of malonyl-CoA which is thought to be implicated in the […] of food consumption (.Hu, Z., Dai, Y., Prentki, M., Chohnan, S, and Lane, D. (2005) J. Biol. Chem. 280: 39681-39683).
# To investigate whether 4-OH can alter activity of the AMPK/ACC in the hypothalamus, rats were treated BID with 100 mg/kg of 4-OH or water (control group) for 2 days. Each group was composed of four animals. All rats (controls and 4-OH treated) were fasted overnight before experimentation. On day 29, rats from each respective group were treated one hour before the terminal procedure with their appropriate solution (water for control and 4-OH for chronically 4-OH treated rats). After decapitation, the hypothalamus were isolated and snap frozen in liquid nitrogen. The hypothalamus was then powdered with liquid nitrogen and then solubilized in lysis buffer. Western blot was performed on the hypothalamus extract after resolution of proteins onto a 7.5% polyacrylamide SDS gel and transfer onto a nitrocellulose membrane. […]
# [3] = HFHS diet, treated for 4 weeks (28 days)
smiles,measurement,setting,value
"C[C@@H]([C@H](C)O)[C@H](N)C(=O)O [Compound 14a, (2S,3R,4S)-4-Hydroxyisoleucine]",percentage change in fat composition relative to baseline (DEXA),"[1]; 100 mg/kg twice daily oral, HFHS ad libitum, p<0.01",significant reduction in percentage fat
same,weight of white adipose tissues compared with normal chow animals,[1]; 100 mg/kg twice daily,the same as untreated animals receiving normal chow
same,"weight of white adipose tissue (epididymal, inguinal and retroperitoneal)","[1]; 100 mg/kg twice daily, vs pair fed untreated and HFHS controls",significant reduction in the weight of these tissues
same,expression of FatB1,FatB1,Upregulation
same,tolerability of treatment,"[2]; 50 and 100 mg/kg twice daily oral gavage, one week",well tolerated
same,weight gain,"[2]; 50 and 100 mg/kg twice daily, first week of treatment",moderation of weight gain was observed
same,food consumption,[2]; first week of treatment,slight decrease in food consumption
same,body weight,"obese mice; 100 mg/kg orally twice daily, 21 days, vs water control",significant reduction of body weight compared to the water control group
same,white fat mass (epididymal fat),"obese mice; 100 mg/kg, end of treatment",loss of the white fat mass (epididymal fat)
same,body weight gain,"DIO-mice; 100 mg/kg twice daily, Day 28 to Day 84",significantly effective at controlling body weight gain
same,body weight gain,"DIO-mice; 100 mg/kg twice daily, Day 28 to Day 84, listed as 4-OH",sustained and highly significant
same,food consumption,"DIO-mice; 100 mg/kg twice daily, first week of treatment",slight decrease in food consumption
same,body weight gain and food consumption after treatment was stopped,"DIO-mice; 100 mg/kg, first week following cessation of treatment",increase in the first week following cessation of treatment
same,tolerability of treatment,"DIO-mice; 25, 50 and 100 mg/kg twice daily, oral gavage, 77 days",well-tolerated
same,body weight gain,"DIO-mice; 50 and 100 mg/kg twice daily, first three weeks of treatment",moderation of weight gain was observed
same,"expression of FABP4/ap2, increase",FABP4/ap2,1.3-1.4 times
same,Increase (x times) in expression of FABP4/ap2,FABP4/ap2; [3],1.4 x times
same,"expression of hormone sensitive lipase (HSL), increase",HSL,1.3-1.4 times
same,Increase (x times) in expression of HSL,HSL; [3],1.3 x times
same,level of phosphorylated ACC in hypothalamus,AMPK-ACC,even more reduced
